Laboratory results published in patent US20220348590A1, “CYCLOOXYGENASE-2 INHIBITORS AND USES THEREOF” (The Board Institute, Inc., priority 2019, published 2022).
Where two headings read alike, the source gives them in different places.

Key:
[1] = target: T1, human recombinant COX2 (hCOX2) (UniProt P35354); test: LCMS-based COX2 enzymatic inhibition assay (PGE2 quantification); assay type: biochemical; set-up: COX2 2 minutes pge2/pge2d4 area ratio Avg; other: 2 minutes; readout pge2/pge2d4 area ratio; average; COX2 2 minutes pge2/pge2d4 area ratio Avg; LLE; average LLE; COX2 2 minutes pge2 area (counts) Avg; readout pge2 area (counts); other: 2 min; "ovine COX2 (oCOX2), human recombinant COX2 (hCOX2)"; details: for IC50: average
T1 sequence (P35354 1-604): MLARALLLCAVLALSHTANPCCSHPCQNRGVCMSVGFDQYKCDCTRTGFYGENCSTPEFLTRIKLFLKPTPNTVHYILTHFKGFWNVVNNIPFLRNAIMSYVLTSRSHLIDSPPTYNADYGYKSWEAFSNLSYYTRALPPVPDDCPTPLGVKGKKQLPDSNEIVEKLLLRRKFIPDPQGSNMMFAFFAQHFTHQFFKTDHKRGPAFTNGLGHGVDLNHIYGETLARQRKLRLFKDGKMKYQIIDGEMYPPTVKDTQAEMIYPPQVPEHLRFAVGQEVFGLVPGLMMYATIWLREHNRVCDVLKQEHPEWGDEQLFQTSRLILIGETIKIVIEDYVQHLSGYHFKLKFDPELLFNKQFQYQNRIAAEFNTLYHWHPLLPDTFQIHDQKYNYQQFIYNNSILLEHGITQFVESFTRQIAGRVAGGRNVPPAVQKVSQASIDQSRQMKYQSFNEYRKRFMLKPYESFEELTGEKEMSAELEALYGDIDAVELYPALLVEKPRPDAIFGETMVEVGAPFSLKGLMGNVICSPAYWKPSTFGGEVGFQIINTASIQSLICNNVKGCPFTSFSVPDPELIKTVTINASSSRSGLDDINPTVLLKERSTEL
Outline: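 PGE2 formed from arachidonic acid (final 5 μM, 2 min) was measured by LC-MS-MS against DMSO controls. Enzyme (oCOX-1 0.1 μg or hCOX2 0.2 μg) with hematin/epinephrine cofactors at pH 8.0 was given 10 min at 37 °C with compound first. Twelve-point curves run three times gave IC50.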

ovine COX-1 (oCOX-1) = target: T2, ovine COX-1 (oCOX-1) (Ovis aries, UniProt P05979); test: LCMS-based COX-1 enzymatic inhibition assay (PGE2 quantification); assay type: biochemical; details: 10 minutes; for IC50: average
T2 construct: purchased Cayman Chemicals (Ann Arbor, Mich.)
T2 sequence (P05979 25-600): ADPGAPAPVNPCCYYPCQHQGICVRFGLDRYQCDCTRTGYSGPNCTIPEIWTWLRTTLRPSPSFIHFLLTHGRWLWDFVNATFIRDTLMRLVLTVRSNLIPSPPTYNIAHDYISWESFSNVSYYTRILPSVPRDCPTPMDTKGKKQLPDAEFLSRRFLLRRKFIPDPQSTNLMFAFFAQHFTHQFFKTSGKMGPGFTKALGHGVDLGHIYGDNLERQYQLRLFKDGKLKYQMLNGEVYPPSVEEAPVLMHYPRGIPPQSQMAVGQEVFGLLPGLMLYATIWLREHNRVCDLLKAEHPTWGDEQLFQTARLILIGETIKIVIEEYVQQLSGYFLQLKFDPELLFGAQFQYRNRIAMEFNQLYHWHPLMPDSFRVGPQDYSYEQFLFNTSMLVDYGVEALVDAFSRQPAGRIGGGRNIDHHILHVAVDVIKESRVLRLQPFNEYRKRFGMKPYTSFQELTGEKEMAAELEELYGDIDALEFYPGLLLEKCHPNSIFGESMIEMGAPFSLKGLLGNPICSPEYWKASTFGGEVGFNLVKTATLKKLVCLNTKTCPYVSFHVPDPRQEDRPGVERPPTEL
Experimental: We have adapted a previously reported cyclooxygenase enzymatic assay utilizing LCMS quantification of PGE2 as the product of COX-1 and COX2 catalyzed conversion of arachidonic acid to evaluate the binding properties of newly synthesized ligands [Cao, 2011]. These optimized and miniaturized (384-well plates) LCMS-based COX-1 and COX2 enzymatic assays enabled us to quickly evaluate newly synthesized ligands for COX2 binding affinity and selectivity vs COX-1. Using a shorter ligand-enzyme incubation time in the LCMS assay (2 minutes vs 10 minutes) also permitted us to prioritize ligands with faster binding kinetics. Considering the relatively slow on-rate kinetics of known coxibs, due to their 3-step binding mechanism [Marnett, 2009], we believe that optimizing this critical parameter will be key to the successful development of a COX2 PET tracer. Using these enzymatic assays, we have evaluated>200 newly synthesized ligands against COX2 and >20 ligands against COX-1. Another critical property necessary for a good PET radiotracer is to have low non-specific binding (NSB) to increase the free fraction and maximize the signal to noise ratio. This property can be evaluated using in-vitro protein binding assays, and we have now evaluated>50 newly synthesized ligands in mouse, rat and human plasma protein binding (PPB) assays as well as >15 ligands in a mouse brain protein binding (BPB) assay.
Ovine COX-1 (oCOX-1), ovine COX2 (oCOX2), human recombinant COX2 (hCOX2), arachidonic acid, PGE2, d4-PGD2, and […] (labeled with deuterium atoms at positions 3 and 4) were purchased from Cayman Chemicals (Ann Arbor, Mich.). The cofactors (−)epinephrine and hematin, and the COX inhibitors indomethacin, resveratrol and diclofenac were purchased from Sigma-Aldrich (St. Louis, Mo.). Celecoxib was purchased from 3B PharmaChem International (Wuhan, China). All organic solvents were HPLC grade or better and were purchased from Thermo Fisher (Hanover Park, Ill.). Formic acid was purchased from EMD Chemicals (San Diego, Calif.). Purified water was prepared by using a Millipore Milli-Q purification system (Millipore, Billerica, Mass.). All other chemicals and solvents were ACS reagent grade, unless stated otherwise.
In an Eppendorf tube, 146 μL of 100 mM Tris.HCl (pH 8.0) buffer, 2 μL of 100 μM hematin (co-factor) and 10 μL of 40 mM L-epinephrine (co-factor) were mixed at room temperature. Next, 20 μL of Tris.HCl (pH 8.0) buffer containing 0.2 μg COX2 or 0.1 μg COX-1 (approximately 1 unit of enzyme; 1 unit COX utilizes 1 nmol 02/mg/min at 37° C.) was added, and the solution was incubated at room temperature for 2 min. A 2 μL aliquot of the COX inhibitor in DMSO was added to the enzyme solution and preincubated at 37° C. for 10 min. Negative controls were identical except that 2 μL aliquots of DMSO without inhibitor were used instead.
Each COX reaction was initiated by adding 20 μL of arachidonic acid in Tris.HCl (pH 8.0) buffer to give a final concentration of 5 μM; and the reaction was terminated after 2 min by adding 20 μL of 2.0 M HCl. The surrogate standards d4-PGE2 and d4-PGD2 (10 μL aliquot of 50 ng/mL solution in methanol) were added to correct for errors or degradation during sample handling and for variation in injection volume or instrument response during LC-MS-MS. After 30 min, PGE2, PGD2 and their surrogate standards were extracted from each incubation mixture using 800 μL hexane/ethyl acetate (50:50, v/v). The organic phase was removed, evaporated to dryness, and reconstituted in 100 μL methanol/water (50:50, v/v) for analysis using LC-MS-MS.
The concentration of PGE2 in each sample was measured using LC-MS-MS, and the percent of COX inhibition by each test solution was determined by comparing the amount of PGE2 produced in the experiment with that produced in the negative control incubation. The formation of PGD2 was measured for quality control purposes, since the levels of PGD2 should be proportional to those of PGE2. […]

[2] = 2 minutes, readout pge2/pge2d4 area ratio, average LLE
[3] = 2 minutes, readout pge2/pge2d4 area ratio, read-out: COX2 2 minutes pge2/pge2d4 area ratio Avg. IC50
[4] = 2 minutes, readout pge2 area (counts), average LLE
[5] = 2 minutes, readout pge2 area (counts), read-out: COX2 2 minutes pge2 area (counts) Avg. IC50
[6] = read-out: COX2 2 minutes pge2/pge2d4 area ratio Avg. IC50 (microM), 2 minutes, readout pge2/pge2d4 area ratio

| Compound | COX2 2 minutes pge2/pge2d4 area ratio Avg. LLE [1, 2] | IC50 [1, 3] [µM] | COX2 2 minutes pge2 area (counts) Avg. LLE [1, 4] | IC50 [1, 5] [µM] | further results |
| --- | --- | --- | --- | --- | --- |
| CS(=O)(=O)c1ccc(-c2ccc(F)c(OCc3cccs3)n2)cc1 [Compound 45] | 3.877 | 0.02 | 3.805 | 0.0232 | COX1 10 minutes pge2/pge2d4 area ratio Avg. LLE (ovine COX-1 (oCOX-1); readout pge2/pge2d4 area ratio, average LLE): 1.328; IC50 (ovine COX-1 (oCOX-1); readout pge2/pge2d4 area ratio, read-out: COX1 10 minutes pge2/pge2d4 area ratio Avg. IC50): 6640 nM; COX1 10 minutes pge2 area (counts) Avg. LLE (ovine COX-1 (oCOX-1); readout pge2 area (counts), average LLE): 1.301; IC50 (ovine COX-1 (oCOX-1); readout pge2 area (counts), read-out: COX1 10 minutes pge2 area (counts) Avg. IC50): 7060 nM |
| C[C@@H](Oc1cccc(-c2ccc(S(C)(=O)=O)cc2)n1)c1cccs1 (single isomer, unassigned) [Compound 229] | 1.429 | 2.25 | 1.483 | 1.99 |  |
| CS(=O)(=O)c1ccc(-c2cncc(N3CCC4(CCCC4)CC3)n2)cc1 [Compound 319] |  |  |  |  | IC50 [1, 6]: 5.2 µM |
| CS(=O)(=O)c1ccc(-c2cnnc(OCc3ccco3)c2)cc1 [Compound 255] | 3.111 | 4.01 | 3.485 | 1.93 |  |
| CS(=O)(=O)c1ccc(-c2cccc(C[C@@H](O)c3cccs3)n2)cc1 [Compound 292] | 2.424 | 5.2 |  |  |  |
| CC(=O)c1ncc(-c2ccc(S(C)(=O)=O)cc2)nc1NCc1cccs1 [Compound 207] | 3.8683 | 1.32 | 3.915 | 1.06 |  |
| CS(=O)(=O)c1ccc(-c2cc(NCc3ccoc3)ccn2)cc1 [Compound 242] |  | 3.01 |  |  |  |
| CS(=O)(=O)c1ccc(-n2ccc3ncc(NCc4cccs4)nc32)cc1 [Compound 126] | 3.568 | 0.142 | 3.634 | 0.122 |  |
| CS(=O)(=O)c1ccc(-c2ccc3ncn(Cc4cccs4)c3n2)cc1 [Compound 155] | 2.321 | 0.32 | 2.324 | 0.317 |  |
| CS(=O)(=O)c1ccc(-n2ccc3ccc(Cc4cccs4)nc32)cc1 [Compound 56] |  | 0.0305 |  | 0.0329 |  |
| CS(=O)(=O)c1ccc(-c2cncc(N3CCCC3)n2)cc1 [Compound 326] |  |  | 4.034 |  | COX2 10 minutes pge2 area (counts) Avg. LLE ([1]; 10 minutes, readout pge2 area (counts), average LLE): 4.754; IC50 ([1]; 10 minutes, readout pge2 area (counts), read-out: COX2 10 minutes pge2 area (counts) Avg. IC50): 0.99 µM; IC50 [1, 6]: 5.2 µM |
| COCCOc1ncc(NCc2cccs2)nc1-c1ccc(S(C)(=O)=O)cc1 [Compound 133] | 4.558 | 0.167 | 4.582 | 0.126 |  |
| CS(=O)(=O)c1ccc(-c2cccc(NCc3ccon3)n2)cc1 [Compound 150] | 5.05 | 0.276 | 5.0953 | 0.249 |  |
| CS(=O)(=O)c1ccc(-c2cncc(/C=C/c3cccs3)n2)cc1 [Compound 223] | 2.992 | 1.86 | 2.918 | 2.24 |  |
| CS(=O)(=O)c1ccc(-c2cccc([S@+]([O-])Cc3cccs3)n2)cc1 [Compound 251] | 3.082 | 3.7 | 2.9649 | 4.84 |  |
